Where a name gives a salt, the structure may show the parent alone. Read-outs that look alike come from different tables or passages of the source. One block for each compound: values may come before it.
Experiments:
[1] = Enterolignans and conjugates in plasma and milk of sheep fed flaxseed-enriched diets (UPLC-QTOF-MS); assay type: in vivo; details: qualitative
Protocol: Eighteen lactating […] (3-4 months in lactation and weighing 66-105 kg) were used and milked twice daily. The animals were parasite-free, and drinking water was available ad libitum. The experimental design was performed with animals stratified according to milk production and number of days post-partum, and then randomly distributed in the experimental groups. The animals were divided into 3 diet groups of 6 animals each. One group of sheep was fed a standard diet, a second group was fed a lignan-enriched diet containing 10% whole flaxseed (Nutricor SL, Leon, Spain) for 2 weeks, and a third group was fed a lignan-enriched diet containing 15% whole flaxseed (Nutricor SL) also for 2 weeks (diet composition is shown in Table 1). Flaxseed amounts and duration of treatment were chosen based on previous studies on cows. Whole flaxseed composition included 20.2% of crude protein, 13.1% of crude fiber and 28.5% of ether extract. All sheep were fed ad libitum twice per day after each milking (09.00 and 18.00 h). Feed intake was not affected by the different experimental diets. […] [29]. The dry residue was dissolved in methanol and filtered (0.22 μm) prior to injection into the ultra-performance liquid chromatography quadrupole time-of-flight mass spectrometry (UPLC-QTOF-MS) equipment. Analyses were developed using an Agilent 1290 Infinity LC system coupled to a 6550 Accurate-Mass QTOF (Agilent Technologies, Waldbronn, Germany) and using an electrospray interface (Jet Stream Technology). Analytical conditions were as previously described with some modifications. Briefly, 5 μL of sample was injected onto a reverse phase Poroshell 120 EC-C18 column (3 × 100 mm, 2.7 μm) (Agilent Technologies) operating at 30 °C. […] The electrospray interface parameters were as follows: gas temperature, 280 °C; drying gas flow, 9 L/min; nebulizer pressure, 35 psi; sheath gas temperature, 400 °C; sheath gas flow, 12 L/min. Spectra were acquired in the m/z range from 100 to 1100 in negative mode and fragmentor voltage was 100 V. Data were processed using Mass Hunter Qualitative Analysis software (version B.06.00 Agilent Technologies). A target screening strategy was applied to plasma and milk samples for the qualitative screening of possible enterolignan-related metabolites. A list of target compounds (60 possible metabolites) covering different phase I and phase II metabolites of parent compound and microbial metabolites was sought in all the samples after MS full-acquisition. Screening was based on mass filtering at the exact mass of the studied compound using narrow mass extraction windows (0.01 m/z). Identification was possible from the valuable information given in QTOF-MS acquisition mode which provides possible molecular formulae for the compounds based on accurate mass and isotopic pattern (Table 2). Additionally, a targeted MS/MS experiment offered fragmentation information for greater reliability in the compound identification process. When possible, direct comparison with authentic standards was performed. Quantification of enterolactone and enterodiol was determined by interpolation in the calibration curve obtained from their own available standards. These metabolites were quantified in MS by peak area integration of their extracted ion chromatograms. Calibration curves were linear from the limit of quantification (LOQ) to 500 nmol/L. […] In the case of conjugated metabolites accurate quantification was not possible due to the absence of available standards and so only qualitative results are provided.

[2] = Plasma pharmacokinetics of danofloxacin after i.m. administration to lactating sheep fed control or flaxseed-enriched diets; assay type: in vivo; details: female, Assaf, im, 1.25 mg/kg, 1.25 mg/kg i.m., mean ± SD; for AUC(0-inf) / Cmax / MRT / Tmax: n = 6; for AUC(0-t): n = 6, read-out: AUC 0–24
Protocol: (§1) Eighteen lactating […] (3-4 months in lactation and weighing 66-105 kg) were used and milked twice daily. The animals were parasite-free, and drinking water was available ad libitum. The experimental design was performed with animals stratified according to milk production and number of days post-partum, and then randomly distributed in the experimental groups. The animals were divided into 3 diet groups of 6 animals each. One group of sheep was fed a standard diet, a second group was fed a lignan-enriched diet containing 10% whole flaxseed (Nutricor SL, Leon, Spain) for 2 weeks, and a third group was fed a lignan-enriched diet containing 15% whole flaxseed (Nutricor SL) also for 2 weeks (diet composition is shown in Table 1). Flaxseed amounts and duration of treatment were chosen based on previous studies on cows. Whole flaxseed composition included 20.2% of crude protein, 13.1% of crude fiber and 28.5% of ether extract. All sheep were fed ad libitum twice per day after each milking (09.00 and 18.00 h). Feed intake was not affected by the different experimental diets. After 2 weeks on the experimental diets, animals in all groups received a single therapeutic dose (1.25 mg/kg, i.m.) of danofloxacin (Advocin 2.5%, Pfizer, Cedex, France). Blood samples (5 mL) were collected from the jugular vein in commercial blood collection tubes (Vacutainer, 10 mL; […] The pharmacokinetic schedule was based on previous studies from our group. […] A complete evacuation of the udder was carried out at each sampling to avoid any dilution effect. Samples were stored at - 20 °C until analysis. Conditions for HPLC analysis of danofloxacin concentrations in plasma and milk were modified according to previously published methods. […] To each 100 μL aliquot of sample, 600 μL of chloroform was added. […] The residue was reconstituted in 100 μL of methanol and injected into the HPLC system. The system consisted of a Waters 600 pump, a Waters 717 plus autosampler, and a Waters 486 fluorescence detector (Waters Corporation, Milford, MA). […] The mobile phase consisted of 25 mM orthophosphoric acid supplemented with 0.1% triethylamine (pH 3.0): acetonitrile (80:20 v/v) at a flow rate of 1.6 mL/min. Sample detection was performed by fluorescence detection at 338 nm (excitation) and 425 nm (emission). Integration was carried out using MILLENNIUM 32 software (Waters). […] Correlation coefficients (r) for danofloxacin ranged between 0.998 and 0.984 for the calibration curves in plasma and milk curves respectively. LOQ were 1.9 ng/mL for sheep plasma and 19 ng/mL for sheep milk. Peak concentration (Cmax) and time-peak concentrations (Tmax) were read from the plotted concentration-time curve for each animal. The area under the plasma concentration-time curves (AUC) was calculated using the linear trapezoidal rule. Mean residence time (MRT) was calculated by the linear trapezoidal rule with extrapolation to time infinity, using the formula: MRT = AUMC/AUC, where AUMC is the mean area under the first moment curve. These calculations were made with a computer program (PK solution 2.0, Summit Research Services, Ashland, OH) and determined by non-compartmental analyses.

[3] = Milk pharmacokinetics (secretion into milk) of danofloxacin after i.m. administration to lactating sheep fed control or flaxseed-enriched diets; assay type: in vivo; details: 1.25 mg/kg i.m.; for Kp / AUC(0-t) / AUC(0-inf) / Cmax / MRT / Tmax: female, Assaf, sheep, 1.25 mg/kg, mean ± SD, n = 6; for Kp: milk and plasma, intramuscular, read-out: AUC 0–24 milk/plasma; for AUC(0-t) / AUC(0-inf) / Cmax / MRT / Tmax: milk, im; for AUC(0-t): read-out: AUC 0–24
Protocol: as §1

[4] = effect of isoflavones present in soy; cited from earlier work
[5] = sheep fed flaxseed-enriched diets vs. control diet

Compound: O=C(O)[C@H]1O[C@@H](Oc2cccc(C[C@@H](CO)[C@H](CO)Cc3cccc(O)c3)c2)[C@H](O)[C@@H](O)[C@@H]1O [Enterodiol- glucuronide]
Localization (matrix in which the compound was identified) [1]: Plasma

Compound: O=S(=O)(O)Oc1cccc(C[C@@H](CO)[C@H](CO)Cc2cccc(O)c2)c1 [Enterodiol- sulfate]
Localization (matrix in which the compound was identified) [1]: Plasma

Compound: OC[C@H](Cc1cccc(O)c1)[C@H](CO)Cc1cccc(O)c1 [Enterodiol]
Localization (matrix in which the compound was identified) [1]: Plasma, milk

Compound: O=C1OC[C@H](Cc2cccc(O)c2)[C@H]1Cc1cccc(O)c1 [Enterolactone]
Localization (matrix in which the compound was identified) [1]: Plasma, milk

AUC(0-inf) ([2]; control diet): 1750 ± 380 ng·h/mL | Cmax ([2]; control diet): 310 ± 50 ng/mL | MRT ([2]; control diet): 4.22 ± 0.73 h | Tmax ([2]; control diet): 1.5 ± 0.5 h | AUC(0-t) ([2]; control diet): 1740 ± 370 ng·h/mL | AUC(0-inf) ([2]; flaxseed 10% diet): 1930 ± 250 ng·h/mL | Cmax ([2]; flaxseed 10% diet): 310 ± 60 ng/mL | MRT ([2]; flaxseed 10% diet): 4.77 ± 0.49 h | Tmax ([2]; flaxseed 10% diet): 1.5 ± 0.5 h | AUC(0-t) ([2]; flaxseed 10% diet): 1920 ± 260 ng·h/mL | AUC(0-inf) ([2]; flaxseed 15% diet): 1810 ± 150 ng·h/mL | Cmax ([2]; flaxseed 15% diet): 300 ± 40 ng/mL | MRT ([2]; flaxseed 15% diet): 4.95 ± 0.39 h | Tmax ([2]; flaxseed 15% diet): 1.16 ± 0.37 h | AUC(0-t) ([2]; flaxseed 15% diet): 1790 ± 150 ng·h/mL | Kp ([3]; control diet): 11 ± 1.95 | Kp ([3]; flaxseed 10% diet): 7.81 ± 2.08 | Kp ([3]; flaxseed 15% diet): 7.57 ± 2.1 | AUC(0-t) ([3]; control diet): 19200 ± 5030 ng·h/mL | AUC(0-t) ([3]; flaxseed 10% diet): 14600 ± 1790 ng·h/mL | AUC(0-t) ([3]; flaxseed 15% diet): 13400 ± 3070 ng·h/mL | AUC(0-inf) ([3]; control diet): 19400 ± 5120 ng·h/mL | Cmax ([3]; control diet): 2950 ± 740 ng/mL | MRT ([3]; control diet): 5.35 ± 0.87 h | Tmax ([3]; control diet): 2.66 ± 0.94 h | AUC(0-inf) ([3]; flaxseed 10% diet): 14900 ± 1860 ng·h/mL | Cmax ([3]; flaxseed 10% diet): 2200 ± 350 ng/mL | MRT ([3]; flaxseed 10% diet): 5.25 ± 0.35 h | Tmax ([3]; flaxseed 10% diet): 3 ± 1 h | AUC(0-inf) ([3]; flaxseed 15% diet): 13700 ± 3130 ng·h/mL | Cmax ([3]; flaxseed 15% diet): 1840 ± 440 ng/mL | MRT ([3]; flaxseed 15% diet): 5.54 ± 0.29 h | Tmax ([3]; flaxseed 15% diet): 2.66 ± 0.94 h | Reduction of milk Cmax ([3]; group fed 15% flaxseed vs. control group): ~40% | Reduction of secretion into milk / milk residue ([3]; sheep fed flaxseed diet vs. control): 25–30% | Reduction of AUC0–24 milk-to-plasma ratio [3, 5]: 25–30% | Reduction of milk AUC0–24 [3, 5]: 25–30% | Reduction of milk Cmax [3, 5]: 25–30%
Compound: CN1C[C@@H]2C[C@H]1CN2c1cc2c(cc1F)c(=O)c(C(=O)O)cn2C1CC1 [danofloxacin]
Reduction of danofloxacin residue in ovine milk [4]: 50%

Compound: Enterolactone-glucuronide
Localization (matrix in which the compound was identified) [1]: Plasma

Compound: Enterolactone-sulfate
Localization (matrix in which the compound was identified) [1]: Plasma

— PMC5769330, “Flaxseed-enriched diets change milk concentration of the antimicrobial danofloxacin in sheep” (BMC Veterinary Research, 2018)
